The source of these data is ChEMBL document CHEMBL5108004, “An auristatin-based peptide-drug conjugate targeting Kita-Kyushu lung cancer antigen 1 for precision chemoradiotherapy in gastric cancer” (Eur J Med Chem, 2022).

Activity calls are given as the source filed them. The calls are words filed in the database; no cut-off is given here. Where a SMILES comes first, the peptide text is derived from it. [ ]: non-standard residue; d: D form. The star is where a group is joined. Dolaproine = CO[C@@H]([C@@H]1CCCN1)[C@@H](C)C(=O)O; Dil = CC[C@H](C)[C@H](NC)[C@@H](CC(=O)O)OC; X1 = C[C@@H](N*)[C@@H](O)c1ccccc1; NMeV = CN[C@H](C(=O)O)C(C)C

In test [1] the test system is NUGC-4. The test can be described thus: Cytotoxicity against KK-LC-1-positive human NUGC-4 cells incubated for 72 hrs by CCK-8 assay. The test is classed as functional, cell-based. As to conditions: NUGC-4, 72 h. (In general: Tetrazolium dyes change colour on reduction, which living cells bring about.)
In test [2] the test system is MKN-45. The test can be described thus: Antitumor activity against KK-LC-1-positive human MKN-45 cells xenografted in male BALB/c nude mouse assessed as tumor volume. The test is classed as functional.
For test [3], the system named is NUGC-4. The test can be described thus: Induction of mitotic arrest in KK-LC-1-positive human NUGC-4 cells xenografted in nude mouse assessed as number of pHH3-positive nuclei in tumor at 4 nmol, iv administered as single dose and measured after 24 hrs by pHH3 immunohistochemical staining method relative to control. The test is classed as functional. (A xenograft is tissue or cells of one species grown in another, often human tumour cells in immunodeficient mice.)

The subject of test [4] is MKN-45. The test can be described thus: Antitumor activity against KK-LC-1-positive human MKN-45 cells xenografted in male BALB/c nude mouse assessed as reduction in tumor growth. The test is classed as functional.
For test [5], the system named is MKN-45. The test is described as follows: Cytotoxicity against KK-LC-1-positive human MKN-45 cells incubated for 72 hrs by CCK-8 assay. The test is classed as functional, cell-based. The settings on record: MKN-45, 72 h.
Another test relates to HGC-27. The test is described as follows: Cytotoxicity against KK-LC-1-negative human HGC-27 cells incubated for 72 hrs by CCK-8 assay. The settings on record: HGC-27, 72 h. The test is classed as functional, cell-based.

With `CC[C@H](C)[C@@H]([C@@H](CC(=O)N1CCC[C@H]1[C@H](OC)[C@@H](C)C(=O)N[C@H](C)[C@@H](O)c1ccccc1)OC)N(C)C(=O)[C@@H](NC(=O)[C@@H](NC)C(C)C)C(C)C` (H-[NMeV]V[Dil][Dolaproine]-X1), the IC50 – broadly, the concentration at which inhibition is half-maximal – amounted to 11 nM in the test with NUGC-4 [1], 10.7 nM with MKN-45 [5] and 7.18 nM with HGC-27. Further, the results for the Activity with MKN-45 [2] and in the test with NUGC-4 [3] were 602.1 mm3 and 28.75, respectively. Further, the result with MKN-45 [4] was Active.
